Test results: patent EP2975030B1, “DIHYDROPYRIDAZINE-3,5-DIONE DERIVATIVE” (Chugai Seiyaku Kabushiki Kaisha, priority 2013, dated 2014)

Columns and labels:
[1] = test system: rat small-intestinal brush border membrane vesicles; assay: Inhibitory effect on 33PO4 uptake into rat small-intestinal brush border membrane vesicles (rapid filtration method); type: biochemical, Wistar female rat; settings: 1 µM test compound, 33PO4 uptake into rat small-intestinal BBMVs, 60 seconds
How it was run: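 33PO4 uptake into rat small-intestinal brush border membrane vesicles measured by rapid filtration. Reactions were stopped with ice-cold buffer (110 mM NaCl, 1 mM KH2PO4, 10 mM HEPES pH 7.5), filtered and washed. Vesicle-associated radioactivity was counted by liquid scintillation.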

[2] = test system: adenine-induced renal failure rat; assay: Suppressive effect on rise in serum phosphorus concentration of adenine-induced renal failure rat (0.05% in feed, 8 days); type: in vivo, Wistar male rat; settings: rate of suppression of a rise in serum phosphorus concentration, 0.05% of mass concentration in feed
Protocol: Test Example 6: Suppressive effect on rise in serum phosphorus concentration of adenine-induced renal failure rat
Each adenine-induced renal failure rat was prepared in the same way as in Test Example 5. Each test compound was mixed at a ratio of 0.05% of mass concentration with feed. The animal was fed with a given amount of the feed for 8 days. A group given feed non-supplemented with a test compound was used as a reference pathological group, and an adenine-unadministered group given feed non-supplemented with a test compound was used as a normal group. 8 days after the start of administration of the test compound, blood was collected from the jugular vein, and serum was collected. Serum phosphorus concentrations were measured by the Fiske-Subbarow method. The rate of suppression of a rise in serum phosphorus concentration was determined according to the following expression: Rate (%) of supression of a rise in serum phosphorus concentration = (1−[(Serumphosphorusconcentrationofthetestcompound−treatedpathologicalgroup)−(Serumphosphorusconcentrationofthenormalgroup)]/[(Serumphosphorusconcentrationofthereferencepathologicalgroup)−(Serumphosphorusconcentrationofthenormalgroup)]) × 100 [formula]
As a result, each test compound was confirmed to have a suppressive effect on a rise in serum phosphorus concentration. […]

human NaPi-IIb = assay: Inhibitory effect on 33PO4 uptake into human NaPi-IIb-expressing cell; type: cell-based; settings: CHO cells stably expressing human NaPi-IIb, 1, 3, 10, or 30 µM
Protocol: CHO cells were transfected with human NaPi-IIb expression plasmids, and a stably human NaPi-IIb-expressing cell line was obtained using G418. The human NaPi-IIb-expressing cells were inoculated to a 96-well plate and incubated overnight in a CO2 incubator. The medium was replaced with buffer A (145 mM choline chloride, 3 mM KCl, 1 mM CaCl2, 0.5 mM MgCl2, 5 mM glucose, and 5 mM MES (pH 6.5)) and then replaced with buffer B (145 mM NaCl, 3 mM KCl, 1 mM CaCl2, 0.5 mM MgCl2, 5 mM glucose, and 5 mM MES (pH 6.5)) supplemented with each test compound at a final concentration of 1,3, 10, or 30 µM or buffer A supplemented with DMSO. After a given time, a 1/20 volume of buffer A containing ^33PO4 was added thereto and reacted at room temperature. After washing with ice-cold buffer A, a liquid scintillator was added to each reaction mixture, and the amount of ^33PO4 uptake was measured using TopCount. The rate of inhibition was determined according to the following expression: [formula]

[3] = test system: adenine-induced renal failure rat; assay: Suppressive effect on rise in serum phosphorus concentration of adenine-induced renal failure rat (0.1% in feed, 3 days); type: in vivo, Wistar male rat; settings: feed or water, 72 h, rate of suppression of a rise in serum phosphorus concentration, 0.1% of mass concentration in feed
Source text: Test Example 5: Suppressive effect on rise in serum phosphorus concentration of adenine-induced renal failure rat Adenine was forcedly administered orally to each Wistar male rat (7-8 weeks old) to impair renal functions and thereby prepare a hyperphosphatemia model ([…], Nagano N, Burke SK, Fukushima N. Sevelamer hydrochloride prevents ectopic calcification and renal osteodystrophy in chronic renal failure rats. Kidney Int. 2003 Aug; 64 (2): 441-50). Each test compound was mixed at a ratio of 0.1% of mass concentration with feed. The animal was fed with a given amount of the feed for 3 days. A group given feed non-supplemented with a test compound was used as a reference pathological group, and an adenine-unadministered group given feed non-supplemented with a test compound was used as a normal group. 3 days after the start of administration of the test compound, blood was collected from the jugular vein, and serum was collected. Serum phosphorus concentrations were measured by the Fiske-Subbarow method. The rate of suppression of a rise in serum phosphorus concentration was determined according to the following expression: Rate (%) of suppression of a rise in serum phosphorus concentration = (1-[([…]-treatedpathologicalgroup); -(Serumphosphorusconcentrationofthenormalgroup)]/; [(Serumphosphorusconcentrationofthereferencepathologicalgroup)-(Serumphosphorusconcentrationofthenormalgroup)]) × 100 [formula] As a result, each test compound was confirmed to have a suppressive effect on a rise in serum phosphorus concentration. […]

SMILES | Rate of uptake inhibition (%) (1 µM) [1] | Rate of inhibition (%) [2] [%] | IC50 (human NaPi-IIb) [µM] | Rate of uptake inhibition (%) (1 µM) ([1]; 1 µM) | inhibition in vivo at 0.1 %, 0.1 % in feed [3] [%]
CN(C)CC(C)(C)COc1ccc(CN2C(=O)C(C(=O)Nc3ccc(C(F)(F)F)cc3-c3cc(C(F)(F)F)ncn3)=C(O)C3(CCCC3)N2C)c(F)c1F [Example 414, 7-(4-(3-(Dimethylamino)-2,2-dimethylpropoxy)-2,3-difluorobenzyl)-10-hydroxy-6-methyl-8-oxo-N-(4-(trifluoromethyl)-2-(6-(trifluoromethyl)pyrimidin-4-yl)phenyl)-6,7-diazaspiro[4.5]dec-9-ene-9-carboxamide] | 27 | 37 | – | – | –
CN1N(Cc2ccc(OCCNCCS(=O)(=O)O)c(F)c2F)C(=O)C(C(=O)Nc2ccc(C(F)(F)F)cc2-c2cc(C(F)(F)F)ncn2)=C(O)C12CCCC2 [Example 436, 2-[2-[2,3-Difluoro-4-[[10-hydroxy-6-methyl-8-oxo-9-[[4-(trifluoromethyl)-2-[6-(trifluoromethyl)pyrimidin-4-yl]phenyl]carbamoyl]-6,7-diazaspiro[4.5]dec-9-en-7-vl]methyl]phenoxy]ethylamino]ethanesulfonic acid] | – | – | 14 | 12 | –
CN(C[C@H](O)[C@@H](O)[C@H](O)[C@H](O)CO)C(=O)CCCOc1ccc(CN2C(=O)C(C(=O)Nc3ccc(C(F)(F)F)cc3-c3cc(C(F)(F)F)ncn3)=C(O)C3(CCCC3)N2C)c(F)c1F [Example 418, 7-[[2,3-Difluoro-4-[4-[methyl-[(2S,3R,4R,5R)-2,3,4,5,6-pentahydroxyhexyl]amino]-4-oxobutoxy]phenyl]methyl]-10-hydroxy-6-methyl-8-oxo-N-[4-(trifluoromethyl)-2-[6-(trifluoromethyl)pyrimidin-4-yl]phenyl]-6,7-diazaspiro[4.5]dec-9-ene-9-carboxamide] | 29 | 38 | – | – | –
COC[C@@H]1CCCN1CCOc1ccc(CN2C(=O)C(C(=O)Nc3ccc(C(F)(F)F)cc3-c3cc(C(F)(F)F)ncn3)=C(O)C3(CCC3)N2C)c(F)c1F [Example 345, 6-[[2,3-Difluoro-4-[2-[(2S)-2-(methoxymethyl)pyrrolidin-1-yl]ethoxy]phenyl]methyl]-9-hydroxy-5-methyl-7-oxo-N-[4-(trifluoromethyl)-2-[6-(trifluoromethyl)pyrimidin-4-yl]phenyl]-5,6-diazaspiro[3.5]non-8-ene-8-carboxamide] | 73 | – | – | – | 19
CN(C)S(=O)(=O)N1CCC(c2cc(C(F)(F)F)ccc2NC(=O)C2=C(O)[C@@]3(C)CCCN3N(Cc3cccc(F)c3F)C2=O)CC1 [Example 110] | 57 | – | 19.8 | – | –
